According to paper PMC9240639, “Williams-Beuren Syndrome Related Methyltransferase WBSCR27: From Structure to Possible Function” (Frontiers in Molecular Biosciences, 2022):

Target: T1, WBSCR27 (Mus musculus, UniProt Q8BGM4)
T1 construct: gene Mettl27; recombinant in E. coli, Ni-NTA, His-tag cleaved; isotope-labelled for NMR
T1 sequence (Q8BGM4 1-238): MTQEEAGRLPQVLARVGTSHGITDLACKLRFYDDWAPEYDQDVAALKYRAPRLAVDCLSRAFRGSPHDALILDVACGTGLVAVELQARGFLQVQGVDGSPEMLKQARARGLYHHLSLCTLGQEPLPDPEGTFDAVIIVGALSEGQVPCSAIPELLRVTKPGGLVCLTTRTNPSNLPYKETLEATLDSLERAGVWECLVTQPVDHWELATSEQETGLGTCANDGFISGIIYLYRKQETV
Test: […],1H HSQC NMR of epimer mixture with protein
Type: binding
Settings: 308 K, labelled compound (methyl 13C), 0.05 mM each

SMILES | 13C,1H HSQC NMR of epimer mixture with protein (equimolar mixture with (S,S)-SAM, seen bound only at the higher protein ratio) | 13C,1H HSQC NMR of epimer mixture with protein (equimolar mixture with (R,S)-SAM)
C[S+](CC[C@H](N)C(=O)O)C[C@H]1O[C@@H](n2cnc3c(N)ncnc32)[C@H](O)[C@@H]1O (mixture of isomers) [(R,S)-SAM] | This indicates a significantly lower affinity of the (R,S)-epimer compared with the (S,S)-epimer | 
C[S+](CC[C@H](N)C(=O)O)C[C@H]1O[C@@H](n2cnc3c(N)ncnc32)[C@H](O)[C@@H]1O (stereo partly drawn) [(S,S)-SAM] |  | WBSCR27 preferably binds the (S,S) stereoisomer
